This is an account of results in US5840684A, “Glycopeptide antibiotic derivatives” (Eli Lilly and Company, priority 1995, dated 1998).

In brackets after ≈: the same amount, converted by molar mass.

Assay [1] has as its system vancomycin-susceptible enterococci. Nature of the assay: broth micro-dilution, mean geometric MIC. The following applies: enterococci, 24-hour incubation. The class given is cell-based, Enterococcus faecium and Enterococcus faecalis.
Assay [2] has as its system vancomycin-resistant enterococci. Nature of the assay: broth micro-dilution, mean geometric MIC. The class given is cell-based, Enterococcus faecium and Enterococcus faecalis. The following applies: enterococci, 24-hour incubation.
Assay [3] concerns Streptococcus pneumoniae P1. Nature of the assay: broth micro-dilution MIC. In kind it is cell-based. The method, then:
(§1) The formula I compounds have in vitro and in vivo activity against Gram-positive pathogenic bacteria. The MIC's were determined using a standard broth micro-dilution assay.

Assay [4] concerns Enterococcus gallinarum 245. The assay is described as follows: broth micro-dilution MIC. The class given is cell-based. To be noted: Enterococcus gallinarum 245. The method, then: as §1
Another assay deals with Entercoccus faecium 180. Nature of the assay: broth micro-dilution MIC. In kind it is cell-based. The following applies: Entercoccus faecium 180. The method, then:
as §1

In assay [5] the test system is Entercoccus faecium 180-1. The assay is described as follows: broth micro-dilution MIC. The class given is cell-based. The method, then:
(§2) The MIC's were determined using a standard broth micro-dilution assay.

The test system of assay [6] is Streptococcus pyogenes C203. Nature of the assay: broth micro-dilution MIC. The class given is cell-based. The procedure:
as §2

For assay [7], the system named is Staphylococcus aureus SA1199B. The class given is cell-based. The procedure: as §2
The subject of assay [8] is Staphylococcus aureus S13E. The class given is cell-based. The procedure: as §2
The subject of assay [9] is Staphylococcus haemolyticus 415. The assay is described as follows: broth micro-dilution MIC. The class given is cell-based. The procedure:
as §1

Assay [10] has as its system Staphylococcus aureus 446. The assay is described as follows: broth micro-dilution MIC. In kind it is cell-based. The method, then: as §2
The subject of another assay is Entercoccus faecium 276. Nature of the assay: broth micro-dilution MIC. In kind it is cell-based. The method, then: as §2
The test system of assay [11] is Staphylococcus epidermidis 270. Nature of the assay: broth micro-dilution MIC. The class given is cell-based. The procedure:
as §1

For the next assay, the system named is Entercoccus faecium 2041. The assay is described as follows: broth micro-dilution MIC. In kind it is cell-based. To be noted: Entercoccus faecium 2041. The procedure:
as §1

Assay [12] has as its system Staphylococcus haemolyticus 105. Nature of the assay: broth micro-dilution MIC. The class given is cell-based. The procedure:
as §1

In assay [13] the test system is Staphylococcus aureus X400. Nature of the assay: broth micro-dilution MIC. In kind it is cell-based. The procedure:
as §2

The test system of assay [14] is Staphylococcus aureus X778. The assay is described as follows: broth micro-dilution MIC. In kind it is cell-based. The procedure: as §2
For assay [15], the system named is Staphylococcus aureus 447. The assay is described as follows: broth micro-dilution MIC. In kind it is cell-based. The procedure: as §2

With `CNC(CC(C)C)C(=O)NC1C(=O)NC(CC(N)=O)C(=O)NC2C(=O)NC3C(=O)NC(C(=O)NC(C(=O)O)c4cc(O)cc(O)c4-c4cc3ccc4O)C(OC3CC(C)(N)C(O)C(C)O3)c3ccc(c(Cl)c3)Oc3cc2cc(c3OC2OC(CO)C(O)C(O)C2OC2CC(C)(NCC3CC=CCC3)C(O)C(C)O2)Oc2ccc(cc2Cl)C1O` (stereo not shown) [Compound 47], the “mean geometric MIC, Vancomycin Sensitive Strains” value in [1] was found to be 0.57 µg/mL. In addition, in assay [2], the “mean geometric MIC, Vancomycin Resistant Strains” value is 4.7 µg/mL.

Take `CCCCCCCCc1ccc(-c2ccc(CNC3(C)CC(OC4C(Oc5c6cc7cc5Oc5ccc(cc5Cl)C(OC5CC(C)(N)C(O)C(C)O5)C5NC(=O)C(NC(=O)C7NC(=O)C(CC(N)=O)NC(=O)C(NC(=O)C(CC(C)C)NC)C(O)c7ccc(c(Cl)c7)O6)c6ccc(O)c(c6)-c6c(O)cc(O)cc6C(C(=O)O)NC5=O)OC(CO)C(O)C4O)OC(C)C3O)cc2)cc1` (stereo not shown) [Compound 21]: the MIC in assay [3] was determined as 0.5 µg/mL (≈ 0.267 µM); in [4] it was 8 µg/mL (≈ 4.28 µM); against Entercoccus faecium 180, 8 µg/mL (≈ 4.28 µM); in assay [5], 8 µg/mL (≈ 4.28 µM); in assay [6], 2 µg/mL (≈ 1.07 µM). Also, the “mean geometric MIC, Vancomycin Sensitive Strains” value in [1] came out at 4.3 µg/mL.

With `CNC(CC(C)C)C(=O)NC1C(=O)NC(CC(N)=O)C(=O)NC2C(=O)NC3C(=O)NC(C(=O)NC(C(=O)O)c4cc(O)cc(O)c4-c4cc3ccc4O)C(OC3CC(C)(N)C(O)C(C)O3)c3ccc(c(Cl)c3)Oc3cc2cc(c3OC2OC(CO)C(O)C(O)C2OC2CC(C)(NCc3ccc4c(c3)OCO4)C(O)C(C)O2)Oc2ccc(cc2Cl)C1O` (stereo not shown) [Compound 48], the “mean geometric MIC, Vancomycin Sensitive Strains” value in assay [1] was found to be 0.50 µg/mL. For the same compound, in assay [2], the “mean geometric MIC, Vancomycin Resistant Strains” value stood at 4.8 µg/mL.

In the case of `CNC(CC(C)C)C(=O)NC1C(=O)NC(CC(N)=O)C(=O)NC2C(=O)NC3C(=O)NC(C(=O)NC(C(=O)O)c4cc(O)cc(O)c4-c4cc3ccc4O)C(OC3CC(C)(N)C(O)C(C)O3)c3ccc(c(Cl)c3)Oc3cc2cc(c3OC2OC(CO)C(O)C(O)C2OC2CC(C)(NCc3ccc(C(F)(F)F)cc3)C(O)C(C)O2)Oc2ccc(cc2Cl)C1O` (stereo not shown) [Compound 37], the MIC was at most 0.06 µg/mL in [7]; at most 0.06 µg/mL in [8]; 1 µg/mL (≈ 0.571 µM) in assay [9]; at most 0.06 µg/mL in assay [3]; at most 0.06 µg/mL in assay [5]; 0.5 µg/mL (≈ 0.286 µM) in assay [10]. The minimal inhibitory concentration (MIC) was 1 µg/mL (≈ 0.571 µM) in the assay on Entercoccus faecium 276 and at most 0.06 µg/mL in assay [6]. Further, the “mean geometric MIC, Vancomycin Resistant Strains” value in assay [2] was 2.4 µg/mL.

For `CNC(CC(C)C)C(=O)NC1C(=O)NC(CC(N)=O)C(=O)NC2C(=O)NC3C(=O)NC(C(=O)NC(C(=O)O)c4cc(O)cc(O)c4-c4cc3ccc4O)C(OC3CC(C)(N)C(O)C(C)O3)c3ccc(c(Cl)c3)Oc3cc2cc(c3OC2OC(CO)C(O)C(O)C2OC2CC(C)(NCc3cc(-c4ccccc4)nc4ccc(OC)cc34)C(O)C(C)O2)Oc2ccc(cc2Cl)C1O` (stereo not shown) [Compound 45], the “mean geometric MIC, Vancomycin Sensitive Strains” value in [1] amounted to 0.50 µg/mL. Moreover, in assay [2], the “mean geometric MIC, Vancomycin Resistant Strains” value is 2.0 µg/mL.

On to `CCOC(c1ccccc1)c1ccc(CNC2(C)CC(OC3C(Oc4c5cc6cc4Oc4ccc(cc4Cl)C(OC4CC(C)(N)C(O)C(C)O4)C4NC(=O)C(NC(=O)C6NC(=O)C(CC(N)=O)NC(=O)C(NC(=O)C(CC(C)C)NC)C(O)c6ccc(c(Cl)c6)O5)c5ccc(O)c(c5)-c5c(O)cc(O)cc5C(C(=O)O)NC4=O)OC(CO)C(O)C3O)OC(C)C2O)cc1` (stereo not shown) [Compound 126], for which the MIC in assay [7] was 1 µg/mL (≈ 0.55 µM); in [8] it was 0.5 µg/mL (≈ 0.275 µM); in [9] it was 2 µg/mL (≈ 1.1 µM); in assay [3] it was at most 0.06 µg/mL; in assay [11], 1 µg/mL (≈ 0.55 µM); against Entercoccus faecium 2041, at most 0.06 µg/mL. Besides, the MIC in assay [4] was 2 µg/mL (≈ 1.1 µM); with Entercoccus faecium 180 it was 1 µg/mL (≈ 0.55 µM); in assay [12], 0.5 µg/mL (≈ 0.275 µM); in assay [5], at most 0.06 µg/mL; in assay [10], 2 µg/mL (≈ 1.1 µM); in assay [13], 1 µg/mL (≈ 0.55 µM). Further, the MIC with Entercoccus faecium 276 is 1 µg/mL (≈ 0.55 µM); in [6] it was at most 0.06 µg/mL; in assay [14], 0.5 µg/mL (≈ 0.275 µM); in [15], 1 µg/mL (≈ 0.55 µM). The “mean geometric MIC, Vancomycin Sensitive Strains” value in [1] is 0.11 µg/mL. Moreover, the “mean geometric MIC, Vancomycin Resistant Strains” value in assay [2] was found to be 2.4 µg/mL.

For the compound `CCCCCOc1ccc(-c2ccc(CNC3(C)CC(OC4C(Oc5c6cc7cc5Oc5ccc(cc5Cl)C(OC5CC(C)(N)C(O)C(C)O5)C5NC(=O)C(NC(=O)C7NC(=O)C(CC(N)=O)NC(=O)C(NC(=O)C(CC(C)C)NC)C(O)c7ccc(c(Cl)c7)O6)c6ccc(O)c(c6)-c6c(O)cc(O)cc6C(C(=O)O)NC5=O)OC(CO)C(O)C4O)OC(C)C3O)cc2)cc1` (stereo not shown) [Compound 40], the “mean geometric MIC, Vancomycin Sensitive Strains” value in [1] amounted to 0.31 µg/mL. For the same compound, the “mean geometric MIC, Vancomycin Resistant Strains” value in assay [2] stood at 0.50 µg/mL.

Regarding `CNC(CC(C)C)C(=O)NC1C(=O)NC(CC(N)=O)C(=O)NC2C(=O)NC3C(=O)NC(C(=O)NC(C(=O)O)c4cc(O)cc(O)c4-c4cc3ccc4O)C(OC3CC(C)(N)C(O)C(C)O3)c3ccc(c(Cl)c3)Oc3cc2cc(c3OC2OC(CO)C(O)C(O)C2OC2CC(C)(NCC(C)=Cc3ccc(C(C)(C)C)cc3)C(O)C(C)O2)Oc2ccc(cc2Cl)C1O` (stereo not shown) [Compound 42], the “mean geometric MIC, Vancomycin Sensitive Strains” value in assay [1] is 0.089 µg/mL. For the same compound, the “mean geometric MIC, Vancomycin Resistant Strains” value in [2] is 1.7 µg/mL.

With `CNC(CC(C)C)C(=O)NC1C(=O)NC(CC(N)=O)C(=O)NC2C(=O)NC3C(=O)NC(C(=O)NC(C(=O)O)c4cc(O)cc(O)c4-c4cc3ccc4O)C(OC3CC(C)(N)C(O)C(C)O3)c3ccc(c(Cl)c3)Oc3cc2cc(c3OC2OC(CO)C(O)C(O)C2OC2CC(C)(NCc3ccc(C(O)c4ccccc4)cc3)C(O)C(C)O2)Oc2ccc(cc2Cl)C1O` (stereo not shown) [Compound 109], the “mean geometric MIC, Vancomycin Sensitive Strains” value in assay [1] was 0.22 µg/mL. Further, the “mean geometric MIC, Vancomycin Resistant Strains” value in assay [2] turned out to be 72 µg/mL.

`CNC(CC(C)C)C(=O)NC1C(=O)NC(CC(N)=O)C(=O)NC2C(=O)NC3C(=O)NC(C(=O)NC(C(=O)O)c4cc(O)cc(O)c4-c4cc3ccc4O)C(OC3CC(C)(N)C(O)C(C)O3)c3ccc(c(Cl)c3)Oc3cc2cc(c3OC2OC(CO)C(O)C(O)C2OC2CC(C)(NCc3c(O)ccc4ccccc34)C(O)C(C)O2)Oc2ccc(cc2Cl)C1O` (stereo not shown) [Compound 44]: the “mean geometric MIC, Vancomycin Sensitive Strains” value in assay [1] amounted to 0.50 µg/mL. In addition, the “mean geometric MIC, Vancomycin Resistant Strains” value in assay [2] was determined as 13 µg/mL.

Consider `CCCCCCCCOc1ccc(-c2ccc(CNC3(C)CC(OC4C(Oc5c6cc7cc5Oc5ccc(cc5Cl)C(OC5CC(C)(N)C(O)C(C)O5)C5NC(=O)C(NC(=O)C7NC(=O)C(CC(N)=O)NC(=O)C(NC(=O)C(CC(C)C)NC)C(O)c7ccc(c(Cl)c7)O6)c6ccc(O)c(c6)-c6c(O)cc(O)cc6C(C(=O)O)NC5=O)OC(CO)C(O)C4O)OC(C)C3O)cc2)cc1` (stereo not shown) [Compound 23], for which the MIC was 0.5 µg/mL (≈ 0.265 µM) in [3]; 32 µg/mL (≈ 17 µM) in the assay on Entercoccus faecium 2041; 8 µg/mL (≈ 4.24 µM) in assay [4]; 32 µg/mL (≈ 17 µM) in [5]; 38 µg/mL (≈ 20.1 µM) in assay [10]; 32 µg/mL (≈ 17 µM) against Entercoccus faecium 276. Besides, the minimum inhibitory concentration (MIC) in assay [6] was 1 µg/mL (≈ 0.53 µM). Further, the “mean geometric MIC, Vancomycin Sensitive Strains” value in assay [1] turned out to be 2.0 µg/mL. Moreover, the “mean geometric MIC, Vancomycin Resistant Strains” value in [2] was found to be 5.7 µg/mL.

In the case of `CNC(CC(C)C)C(=O)NC1C(=O)NC(CC(N)=O)C(=O)NC2C(=O)NC3C(=O)NC(C(=O)NC(C(=O)O)c4cc(O)cc(O)c4-c4cc3ccc4O)C(OC3CC(C)(N)C(O)C(C)O3)c3ccc(c(Cl)c3)Oc3cc2cc(c3OC2OC(CO)C(O)C(O)C2OC2CC(C)(NCCc3ccc(Cc4ccccc4)cc3)C(O)C(C)O2)Oc2ccc(cc2Cl)C1O` (stereo not shown) [Compound 35], the MIC in [8] was at most 0.06 µg/mL; in [9], 4 µg/mL (≈ 2.24 µM); in [11] it was 1 µg/mL (≈ 0.56 µM); against Entercoccus faecium 2041, at most 0.06 µg/mL; in [4] it was at most 0.06 µg/mL; in the assay on Entercoccus faecium 180, 1 µg/mL (≈ 0.56 µM). The MIC in assay [12] was 2 µg/mL (≈ 1.12 µM); in assay [5] it was at most 0.06 µg/mL; in assay [10], 0.5 µg/mL (≈ 0.28 µM); against Entercoccus faecium 276, at most 0.06 µg/mL. For the same compound, the “mean geometric MIC, Vancomycin Resistant Strains” value in assay [2] is 5.6 µg/mL.
